In US4371544A, “Pharmaceutical composition containing 1,1,3,5-substituted biuret compound” (Taiho Pharmaceutical Company Limited, priority 1979, dated 1983):

Key:
[1] = tested on: ddy strain of male mice; assay: Acute toxicity (oral, mice, 7 days observation); assay type: in vivo
Method: (§1) Next, several tests for determining the pharmacological properties, in that acute toxicity, anti-pyretic activity, analgesic activity and anti-inflammatory activity of the present 1,1,3,5-substituted biuret compounds of the formula (1) were conducted and the test results are shown in Table (2). In the tests, each compounds to be tested was used as a suspension in 0.25% carboxymethylcellulose solution. Methods for testing are explained as follows:
The ddy strain of male mice (body weight, 20-25 g) were used as test animals. The mice were fasted overnight and the compound to be tested was administered orally. […] The lethal dose (mg/kg, body weight) of the test compound was determined in connection with the death number of mice/the number of mice tested. In Table 2, the values indicated with Δ marks are 50% lethal dose, LD50 (mg/kg, body weight).

[2] = tested on: ddy strain of male mice; assay: Analgesic activity, acetic acid-induced stretching method; assay type: in vivo, mouse (ddy); conditions: for inhibition in vivo at 100 mg/kg / inhibition in vivo at 200 mg/kg: read-out: Analgesic activity, acetic acid-induced stretching method, inhibitory ratio
Method: as §1
According to the method reported by Koster et al., [Fed. Proc., Vol. 18, pp. 412 (1959)], the ddy strain of male mice (body weight, 20-25 g) were used as test animals. The mice were fasted overnight, 100 mg/kg body weight of the test compound was administered orally, then 1 hour after the administration, 0.2 ml of 0.7% acetic acid solution was injected intraperitoneally. The acetic acid-induced stretching symptom of mouse was observed. Analgesic activity of the test compound was calculated as the inhibitory ratio (%). In Table 2, the values in parentheses show the data obtained from the test by using the dosage other than 100 mg/kg body weight. Further, the values indicated with Δ marks show 50% effective dose, ED50 (mg/kg body weight).

[3] = tested on: Wistar strain of male rats; assay: Anti-pyretic activity (dry-yeast-induced fever); assay type: in vivo, rat (Wistar); conditions: oral (dose not given), up to 4 hours after administration
Method: as §1
According to the method reported by Tanabe [Folia Pharmacologia Japonica, Vol. 73, pp. 803 (1977)], the Wistar strain of male rats (150-180 g, body weight) were used as test animals. The rats were fasted overnight, and 1 ml/100 g (body weight) of 10% dry-yeast suspension were subcutaneously injected on the back of the rats. Five hours after the injection, the test compound was administered orally, then the body temperature of the rat was measured at time sequences. Anti-pyretic activity of the test compound was determined as the FI (febril index) by integrating pyrogenetic curve up to 4 hours after the administration of the test compound with time, and indicated as inhibitory ratio (%) shown by the following formula, [formula]

[4] = tested on: ddy strain of male mice; assay: Analgesic activity, Haffner method (morphine threshold dose, clamp); assay type: in vivo, mouse (ddy); conditions: for ED50 / inhibition in vivo at 100 mg/kg: Mus musculus; for ED50: oral, Δ mark, range in parentheses; for inhibition in vivo at 100 mg/kg: read-out: Analgesic activity, Haffner method, inhibitory ratio
Method: as §1
According to the modified method reported by Fujimura et. al., [Bulletin of the Institute for Chemical Research, Kyoto University, No. 25, pp. 36 (1951)], the ddy strain of male mice (body weight, 20-25 g) were used as test animals. The mice were fasted overnight, 100 mg/kg body weight of the test compound was administered orally, then 45 minutes after the administration, the threshold amount (1.5-2.5 mg/kg body weight) of morphine hydrochloride was injected subcutaneously. Then 1-hour pain reaction of the mouse caused by a clamp was observed. Analgesic activity of the test compound was calculated as the inhibitory ratio (%). In Table 2, the values in parentheses show the data obtained from the test by using the dosage other than 100 mg/kg body weight. Further, the values indicated with Δ marks show 50% effective dose, ED50 (mg/kg body weight).

[5] = 100 mg/kg oral, 45 minutes before morphine hydrochloride
[6] = 100 mg/kg oral, 1 hour before acetic acid

Compound | Acute toxicity: death number of mice/number of mice tested ([1]; 2000 mg/kg oral) | Acute toxicity: death number of mice/number of mice tested ([1]; 1000 mg/kg oral) | Anti-pyretic activity, inhibitory ratio (febril index) [3] [%] | Analgesic activity, Haffner method, inhibitory ratio [4, 5] [%] | Analgesic activity, acetic acid-induced stretching method, inhibitory ratio [2, 6] [%] | also measured
CN(C)C(=O)NC(=O)Nc1ccccc1F [Compound No. 2, 1,1-Dimethyl-5-(2-fluorophenyl)biuret] | 0/4 |  |  |  |  | inhibition in vivo at 100 mg/kg ([2]; Mus musculus, 100 mg/kg oral, 1 hour before acetic acid): 40%
CN(C)C(=O)NC(=O)Nc1ccc(Cl)cc1 [Compound No. 3] | 0/4 |  |  |  |  | inhibition in vivo at 100 mg/kg ([2]; Mus musculus, po): 50%
CN(C)C(=O)N(C)C(=O)Nc1ccccc1F [Compound No. 7, 1,1,3-Trimethyl-5-(2-fluorophenyl)biuret] | 4/4 | 1/4 | 76 | 75 | 62.5 | 
Cc1ccc(NC(=O)N(C)C(=O)N(C)C)cc1C [Compound No. 30, 1,1,3-Trimethyl-5-(3,4-dimethylphenyl)biuret] | 1/4 |  | 31 |  |  | ED50 [4]: 86 mg/kg
CCN(C)C(=O)N(C)C(=O)Nc1ccccc1 [Compound No. 45, 1-ethyl-1,3-dimethyl-5-phenylbiuret] |  |  | 49 |  |  | ED50 [4]: 100 mg/kg; Analgesic activity, acetic acid-induced stretching method, inhibitory ratio ([2]; 80 mg/kg oral): 50%
CN(C)C(=O)N(C)C(=O)Nc1ccc(F)cc1 [compound 8, 1,1,3-Trimethyl-5-(4-fluorophenyl)biuret] |  |  | 61 | 62.5 | 87.5 | 
CN(C)C(=O)N(C)C(=O)Nc1ccccc1Cl [compound 10, 1,1,3-Trimethyl-5-(2-chlorophenyl)biuret] | 0/4 |  | 66 | 37.5 |  | ED50 ([2]; Mus musculus, oral, Δ mark, range in parentheses): 135 mg/kg
CN(C)C(=O)N(C)C(=O)Nc1ccc(Cl)cc1Cl [compound 13, 1,1,3-Trimethyl-5-(2,4-dichlorophenyl)biuret] | 3/4 | 0/4 | 42 | 75 | 50 | 
CN(C)C(=O)N(C)C(=O)Nc1ccc(Cl)c(Cl)c1 [compound 14, 1,1,3-Trimethyl-5-(3,4-dichlorophenyl)biuret] | 3/4 | 1/4 | 43 | 62.5 | 50 | 
CN(C)C(=O)N(C)C(=O)Nc1c(Cl)cccc1Cl [compound 15, 1,1,3-Trimethyl-5-(2,6-dichlorophenyl)biuret] |  |  | 29 | 50 | 50 | 
CN(C)C(=O)N(C)C(=O)Nc1ccc(N(C)C)cc1 [compound 19, 1,1,3-Trimethyl-5-(4-dimethylaminophenyl)biuret] | 0/4 |  | 26 | 50 | 62.5 | 
CN(C)C(=O)N(C)C(=O)Nc1ccc(O)cc1 [compound 21, 1,1,3-Trimethyl-5-(4-hydroxyphenyl)biuret] | 3/4 | 0/4 |  |  |  | inhibition in vivo at 100 mg/kg [4, 5]: 12.5%; inhibition in vivo at 100 mg/kg ([2]; Mus musculus, po): 37.5%
COc1ccccc1NC(=O)N(C)C(=O)N(C)C [compound 22, 1,1,3-Trimethyl-5-(2-methoxyphenyl)biuret] | 2/4 | 0/4 | 13 |  | 37.5 | inhibition in vivo at 100 mg/kg [4, 5]: 50%
COc1ccc(NC(=O)N(C)C(=O)N(C)C)cc1OC [compound 24, 1,1,3-Trimethyl-5-(3,4-dimethoxyphenyl)biuret] | 4/4 | 0/4 | 18 | 62.5 | 75 | 
Cc1cccc(NC(=O)N(C)C(=O)N(C)C)c1C [compound 29, 1,1,3-Trimethyl-5-(2,3-dimethylphenyl)biuret] | 4/4 | 1/4 | 40 | 25 |  | 
Cc1cccc(C)c1NC(=O)N(C)C(=O)N(C)C [compound 31, 1,1,3-Trimethyl-5-(2,6-dimethylphenyl)biuret] |  |  | 69 | 37.5 | 75 | 
Cc1c(Cl)cccc1NC(=O)N(C)C(=O)N(C)C [compound 32, 1,1,3-Trimethyl-5-(2-methyl-3-chlorophenyl)biuret] | 4/4 | 1/4 | 45 | 25 | 75 | 
CSc1ccc(NC(=O)N(C)C(=O)N(C)C)cc1 [compound 34, 1,1,3-Trimethyl-5-(4-methylthiophenyl)biuret] | 4/4 | 0/4 |  |  | 50 | 
CCCN(C(=O)Nc1ccccc1)C(=O)N(C)C [compound 37, 1,1-Dimethyl-3-n-propyl-5-phenylbiuret] | 0/4 |  | 12 |  | 37.5 | Analgesic activity, Haffner method, inhibitory ratio ([4]; 200 mg/kg oral): 62.5%
CCCCNC(=O)N(C(=O)N(C)C)c1ccccc1 [compound 40] | 1/4 | 0/4 |  |  |  | inhibition in vivo at 100 mg/kg [4, 5]: 62.5%; inhibition in vivo at 200 mg/kg ([2]; Mus musculus, po): 62.5%
CCCCN(C)C(=O)N(C)C(=O)Nc1ccccc1 [compound 48, 1,3-Dimethyl-1-n-butyl-5-phenylbiuret] | 3/4 | 0/4 | 35 | 25 | 37.5 | 
CNC(=O)N(C)C(=O)N(c1ccccc1)c1ccccc1 [compound 65, 1,1-Diphenyl-3,5-dimethylbiuret] | 4/4 | 1/4 |  |  |  | inhibition in vivo at 100 mg/kg [4, 5]: 50%; inhibition in vivo at 100 mg/kg ([2]; Mus musculus, po): 12.5%
CN(C(=O)Nc1ccccc1)C(=O)N1CCCC1 [compound 68, 1,1-Tetramethylene-3-methyl-5-phenylbiuret] |  |  | 24 |  |  | Acute toxicity: death number of mice/number of mice tested ([1]; mouse, in vivo): 2/4; inhibition in vivo at 100 mg/kg ([2]; Mus musculus, po): 75%
O=C(NC(=O)N1CCCCC1)Nc1ccccc1 [compound 69, 1,1-Pentamethylene-5-phenylbiuret] | 0/4 |  |  |  |  | ED50 [4]: 115 mg/kg; inhibition in vivo at 200 mg/kg ([2]; Mus musculus, po): 50%
CNC(=O)N(C)C(=O)N1CCOCC1 [compound 72, 1,1-(3-Oxapentamethylene)-3,5-dimethylbiuret] | 0/4 |  |  |  |  | inhibition in vivo at 100 mg/kg [4, 5]: 25%; inhibition in vivo at 100 mg/kg ([2]; Mus musculus, po): 50%
